The text below walks through data of patent publication US9296778B2, “3′,5′-cyclic phosphate prodrugs for HCV infection” (Idenix Pharmaceuticals, Inc., priority 2012, dated 2016).

One data set concerns fresh human hepatocytes. Put plainly: Release of active metabolite in fresh human hepatocytes. Conditions: 10 μM compound; for FHH TP Cmax: fresh human hepatocytes; for FHH TP AUC: fresh human hepatocytes, 6, 24 and 48 hours. In kind it is in vitro ADME. Put shortly: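 Overnight-acclimatized hepatocytes (0.8 million cells/well human, 0.5 million mouse) incubated at 37 °C with 10 μM test compound (0.1% DMSO). Sampled at 6, 24, 48 h (human) or 1, 4, 8, 12, 24 h (mouse); cells washed, extracted in cold 70% methanol, intracellular content quantified by LC-MS/MS with internal standard.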

A short description of another data set: Stability in mouse blood. In kind it is in vitro ADME. Conditions: on ice, percent unchanged test compound. Here is the method:
(§1) Stability of compounds were determined in fresh human whole blood with K2EDTA as the anticoagulant (stored refrigerated at 2-8° C. and used within 7 days of receipt). The experiment was conducted with three replicates for each time point. Whole blood, pre-incubated at 37° C. for 10-15 minutes, was fortified with a solution of test compound for a final concentration of 0.5 μM and mixed for 30 sec. At intervals (0, 0.5, 1 and 2 hr), three 50 μL aliquots were combined with 200 μL (each) of an ice-cold solution of the internal standard (carbutamide 500 ng/mL in acetonitrile). The samples were vortexed for 30 sec and then centrifuged at 16,100 g for 5 min. The supernatant was analyzed by LC-MS/MS. The MS peak area ratio of the test compounds versus the internal standard was calculated and percent unchanged test compound was calculated for each time point using this ratio.
The stability in mouse blood was determined on ice at 0, 0.5 and 1 hr as herein.

Data set [1] in a line: Stability in simulated intestinal fluid. It is filed as in vitro ADME. The following applies: 100 μM, 2 hours at 37° C., percent of the peak area at time zero. As to the method:
(§2) Simulated gastric and intestinal fluids containing pepsin and pancreatin respectively were prepared according to the U.S. Pharmacopoeia USP291 procedure (www.pharmacopeia.cn/v29240/usp29nf24s0_ris1s126.html). Compounds (final concentration 100 μM) were incubated in duplicate in the appropriate fluid for 2 hours at 37° C. The samples were quenched with 200 μl cold acetonitrile, vortexed for 30 seconds and then centrifuged at 16,100 g for 10 min. The supernatants were analyzed by HPLC on a C-18 column with UV detection at 252 nm. The time 0 samples were prepared by adding SGF or SIF fluid to the quenching solvent followed by the test compound. Stability of the compounds was determined by peak area of the test compounds after incubation and calculated as percent of the peak area observed at time zero.

Data set [2] in a line: Stability in fresh human whole blood. It is filed as in vitro ADME. The following applies: 0.5 μM, percent unchanged test compound. As to the method:
as §1

Data set [3] can be described thus: Liver pharmacokinetics following a single oral dose in CD-1 mice. In kind it is in vivo. The following applies: single oral dose 25 mg/kg in PEG 200, CD-1 male mice; given at 1 μmol/kg; 25 mg/kg. As to the method:
(§3) A single oral dose of test compound at 25 mg/kg in PEG 200 (dose volume 5 mL/kg) was administered to nine CD-1 male mice. Five untreated animals were used for the collection of control plasma and liver. Terminal plasma and liver samples were collected from three animals per time point at 4, 12 and 24 hours post dose. Liver specimens were collected from all animals immediately after the incision. Freezing forceps stored in liquid nitrogen were used to freeze the liver before excision.
Liver samples were analyzed for the active species 2′-methylguanosine triphosphate (2′-MeGTP) by LC-MS/MS. 2′-MeGTP levels were assayed by homogenizing (on ice) a known weight of mouse liver with 4× volume of 0.95 M trichloroacetic acid (TCA). Internal standard solution was added to the homogenate followed by neutralization with 20% ammonium hydroxide solution and addition of 500 μL 1% formic acid. The tissue samples were extracted by weak anion exchange solid phase extraction (SPE). Post extraction, the eluates were evaporated under nitrogen, followed by reconstitution before injection onto the LC-MS/MS system. The samples were chromatographed on a Luna NH2 column using a gradient system of ammonium acetate (1 mM to 20 mM and pH 8.0 to pH 10.0) in water and acetonitrile (70:30). The analyte was detected and quantified by tandem mass spectrometry in positive ion mode on an API4000 equipped with a Turbo Ionspray® interface. The calibration range was 10 to 10000 pmol/mL in mouse liver homogenate (50 to 50000 pmol/g of mouse liver).

Data set [4] in a line: Plasma pharmacokinetics following a single oral dose in CD-1 mice. It is filed as in vivo. The following applies: single oral dose 25 mg/kg in PEG 200, CD-1 male mice; given at 1 μmol/kg; 25 mg/kg. As to the method: as §3
Plasma samples were analyzed for 2′-methylguanosine (2′-MeG) by LC-MS/MS. The internal standard (IS) was 2′-MeG-D3. For protein precipitation and extraction, each plasma sample (50 μL) was treated with 500 μL of 0.2% formic acid in acetonitrile and 20 μL of the internal standard working solution. After vortexing and centrifugation, 500 μL of the sample extracts were transferred to a new plate, dried under N2 at ˜28° C. and reconstituted with 75 μL of 0.2% FA in water. The extracts were chromatographed on an Aquasil C18 column using a gradient system of 0.2% formic acid in water and acetonitrile. The analytes were detected and quantified by tandem mass spectrometry in positive ion mode on an MDS Sciex API5000 equipped with a Turbo Ionspray® interface. The calibration range was 0.500 (LLOQ) to 200 ng/mL in mouse plasma.

A further data set relates to HCV genotype 1b replicon. Put plainly: HCV Replicon Assay. In kind it is cell-based. The following applies: Zluc cells (Huh-7-derived, HCV genotype 1b replicon, luciferase reporter), 72 hours, read-out: HCV Replicon EC50. In outline: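 Zluc Huh-7 cells with HCV genotype 1b replicon and luciferase reporter treated with 5-fold dilutions (100 μM to 0.0000512 μM final) in duplicate, or at 1 and 10 μM. Luminescence read with ONE-glo; EC50 from dose-response fits, or % inhibition at the fixed concentrations.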
In general terms: In antiviral work, replicon cells carry a viral genome segment that copies itself.

A further data set concerns Zluc cells. Put plainly: cytotoxicity evaluation (CellTiter-Blue Cell Viability Assay). Conditions: read-out: HCV Replicon CC50; Zluc cells, CellTiter-Blue.
Another data set relates to mouse hepatocytes. Put plainly: Release of active metabolite in mouse hepatocytes. It is filed as in vitro ADME. Conditions: 10 μM compound; for MsH Cmax: mouse hepatocytes; for MsH AUC: mouse hepatocytes, 1, 4, 8, 12 and 24 hours. As to the method: Plates of fresh human and mouse hepatocytes were obtained on ice. The medium was removed and replaced with hepatocyte culture medium (William's E supplemented with penicillin-streptomycin, 1% L-glutamine, 1% insulin-transferrin-selenium and 0.1 μM Dexamethasone (Invitrogen) or with Invitro GRO HI medium complemented with Torpedo antibiotics (Celsis)). Cells were left overnight in an incubator at 37° C. to acclimatize to culture and the medium.
Hepatocyte incubations were conducted at a final volume of 0.5 mL hepatocyte culture medium/well (0.8 million cells/well for human and 0.5 million cells/well for mouse; 12 well plate no overlay, collagen coat). Culture medium from overnight incubation of cells was removed and replaced with fresh medium, pre-warmed to 37° C., containing 10 μM of test compound from a stock solution in DMSO (final DMSO concentration was 0.1%). At each specific time point, incubation medium was removed and cell monolayers were carefully washed two times with ice-cold PBS. Following the last wash, all PBS was carefully removed and 1.0 mL of extraction solution (ice-cold 70% methanol/30% water) added. Cells were scraped off and suspended in the extraction solution, transferred to 2 mL polypropylene microfuge tubes and intracellular contents extracted overnight at −20° C.
After the overnight treatment the cellular extracts were prepared by centrifugation at 16,000×g for 10 min to remove cellular debris. The remaining sample was then dried using a refrigerated centrivap concentrator. Dry extracts were reconstituted in 1000 μL of HPLC-grade water and centrifuged at 16,000×g for 10 min. Aliquots (100 μL each) of the supernatant were transferred into a 96 well plate and internal standard (4 ng/mL final concentration) was added as the internal standard (IS) for LC-MS/MS analysis.
The incubation time points were 6, 24 and 48 hours for human hepatocytes and 1, 4, 8, 12 and 24 hours for mouse hepatocytes.

Another data set can be described thus: in vitro. Conditions: human, HCV Replicon CC50, Zluc cells, CellTiter-Blue.
The nature of data set [5]: Stability in simulated gastric fluid. In kind it is in vitro ADME. Conditions: 100 μM, 2 hours at 37° C., percent of the peak area at time zero. Here is the method:
as §2

Like-named read-outs stand apart in the source and are kept apart here.

Broadly, the EC50 is the concentration that produces a half-maximal response. For orientation: CC50 means the concentration giving 50% cytotoxicity. Turning to `CCOc1nc(N)nc2c1ncn2[C@@H]1O[C@@H]2COP(=O)(OCCSC(=O)C(C)(C)CO)O[C@H]2[C@@]1(C)O` (single isomer, unassigned) [Compound 4 Diastereomer 2], in the data set on fresh human hepatocytes, the “FHH TP Cmax” value is listed as 681 pmol/mill cells and the “FHH TP AUC” value was determined as 24086 pmol · hr/mill cells. Moreover, the “Stability WB_Mouse (ice; 1 hr)” value in the data set “Stability in mouse blood” turned out to be 105%. For the same compound, the “Stability SIF” value in data set [1] is 77%. Further, the “Stability WB_Human (37° C.; 2 hr)” value in data set [2] is recorded as 59%. The “Ms Liver 2′-MeGTP AUC” value in [3] was found to be 1100 pmol · hr/g at 1 μmol/kg. In data set [4], the “Ms Plasma 2′-MeG AUC” value is listed as 24 pmol · hr/mL at 1 μmol/kg and the “Ms Plasma 2′-MeG Cmax” value turned out to be 1.7 pmol/mL at 1 μmol/kg. In addition, the EC50 in the data set with HCV genotype 1b replicon was below 0.25 µM. Also, the CC50 in the data set with Zluc cells is below 50 µM. Besides, in the data set with mouse hepatocytes, the “MsH Cmax” value is on record as 386 pmol/mill cells and the “MsH AUC” value is given as 13328 pmol · hr/mill cells.

As for `CCOc1nc(N)nc2c1ncn2[C@@H]1O[C@@H]2COP(=O)(OCCSC(=O)C(C)(C)CO)O[C@H]2[C@@]1(C)F` (single isomer, unassigned) [Compound 5 Diastereomer 1], in the data set with fresh human hepatocytes, the “FHH TP Cmax” value is 204 pmol/mill cells and the “FHH TP AUC” value amounted to 7185 pmol · hr/mill cells. Besides, the “Stability WB_Mouse (ice; 1 hr)” value in the data set “Stability in mouse blood” is 99%. In addition, the “Stability SIF” value in data set [1] was 86%. This compound also yielded a CC50 in the data set “in vitro” above 50 µM. In data set [2], the “Stability WB_Human (37° C.; 2 hr)” value is reported as 82%. Further, the “Ms Liver 2′-MeGTP AUC” value in data set [3] amounted to 1200 pmol · hr/g at 1 μmol/kg. Further, in data set [4], the “Ms Plasma 2′-MeG AUC” value was found to be 97 pmol · hr/mL at 1 μmol/kg and the “Ms Plasma 2′-MeG Cmax” value is given as 8.1 pmol/mL at 1 μmol/kg. Moreover, the EC50 in the data set with HCV genotype 1b replicon (Hepatitis C virus, 72 h) was below 0.25 µM. Besides, the “Stability SGF” value in data set [5] was 108%. Also, in the data set with mouse hepatocytes, the “MsH Cmax” value was found to be 374 pmol/mill cells and the “MsH AUC” value was 9866 pmol · hr/mill cells.

On to `CCOc1nc(N)nc2c1ncn2[C@@H]1O[C@@H]2COP(=O)(OCCSC(=O)C(C)(C)CO)O[C@H]2[C@@]1(C)F` (single isomer, unassigned) [Compound 5 Diastereomer 2], for which, in the data set on fresh human hepatocytes, the “FHH TP Cmax” value was determined as 448 pmol/mill cells and the “FHH TP AUC” value came out at 9694 pmol · hr/mill cells. Also, in “Stability in mouse blood”, the “Stability WB_Mouse (ice; 1 hr)” value is 93%. For the same compound, in data set [1], the “Stability SIF” value was 77%. Also, the “Stability WB_Human (37° C.; 2 hr)” value in data set [2] amounted to 46%. The “Ms Liver 2′-MeGTP AUC” value in [3] was determined as 2600 pmol · hr/g at 1 μmol/kg. Moreover, in data set [4], the “Ms Plasma 2′-MeG AUC” value was 220 pmol · hr/mL at 1 μmol/kg and the “Ms Plasma 2′-MeG Cmax” value was 23 pmol/mL at 1 μmol/kg. Also, the EC50 with HCV genotype 1b replicon was below 0.25 µM. Moreover, the CC50 in the data set on Zluc cells is above 50 µM. In the data set on mouse hepatocytes, the “MsH Cmax” value is recorded as 302 pmol/mill cells and the “MsH AUC” value came out at 8713 pmol · hr/mill cells.

With `CCOc1nc(N)nc2c1ncn2[C@@H]1O[C@@H]2COP(=O)(OCCSSC(C)(C)C)O[C@H]2[C@@]1(C)F` (single isomer, unassigned) [Compound 24 Diastereomer 1], in the data set on fresh human hepatocytes, the “FHH TP Cmax” value is given as 154 pmol/mill cells and the “FHH TP AUC” value is recorded as 3399 pmol · hr/mill cells. Further, the “Stability SIF” value in [1] is recorded as 90%. In “in vitro”, the CC50 was below 50 µM. In addition, the “Stability WB_Human (37° C.; 2 hr)” value in data set [2] amounted to 91%. The EC50 in the data set with HCV genotype 1b replicon (Hepatitis C virus, 72 h) was below 0.25 µM. Moreover, the “Stability SGF” value in data set [5] is 87%.

For `CCOc1nc(N)nc2c1ncn2[C@@H]1O[C@@H]2COP(=O)(OCCSSC(C)(C)C)O[C@H]2[C@@]1(C)F` (single isomer, unassigned) [Compound 24 Diastereomer 2], in the data set with fresh human hepatocytes, the “FHH TP Cmax” value is reported as 105 pmol/mill cells and the “FHH TP AUC” value was 3031 pmol · hr/mill cells. Besides, the “Stability SIF” value in [1] is recorded as 47%. The “Stability WB_Human (37° C.; 2 hr)” value in data set [2] is on record as 73%. For the same compound, the EC50 in the data set on HCV genotype 1b replicon is below 0.25 µM. In addition, the CC50 in the data set with Zluc cells is below 50 µM. Also, in [5], the “Stability SGF” value is given as 30%.

As for `CCOc1nc(N)nc2c1ncn2[C@@H]1O[C@@H]2COP(=O)(OC[C@H](C)NC(=O)OC)O[C@H]2[C@@]1(C)F` (single isomer, unassigned; diastereomer 2) [Compound 9 Diastereomer 2], in the data set on fresh human hepatocytes, the “FHH TP Cmax” value was “BLD^a” and the “FHH TP AUC” value is “BLD^a”. Also, the “Stability SIF” value in [1] is 105%. For the same compound, the “Stability WB_Human (37° C.; 2 hr)” value in data set [2] was determined as 85%. The EC50 in the data set with HCV genotype 1b replicon is below 0.25 µM. In addition, the CC50 in the data set on Zluc cells was above 50 µM. For the same compound, in data set [5], the “Stability SGF” value is on record as 85%.
